Source: patent publication US5750700A, “Certain 1-substituted aminomethyl imidazole and pyrrole derivatives: novel dopamine receptor subtype specific ligands” (Neurogen Corporation, priority 1995, dated 1998)
Counter-ions that a name gives are not always drawn.

What was measured:
[1] = target: D2 and D3 receptor (rat striatal homogenates); assay: D2 and D3 receptor binding activity: displacement of 3H-raclopride in rat striatal homogenates; design: species or system adult male Sprague Dawley rats; conditions: 0.5 nM 3H-raclopride, nonspecific binding 10^-4M dopamine
Description: Assay for D2 and D3 Receptor Binding Activity Striatial tissue is dissected from adult male Sprague Dawley rats or BHK 293 cells are harvested containing recombinantly produced D2 or D3 receptors. The sample is homogenized in 100 volumes (w/vol) of 0.05M Tris HCl buffer at 4° C. and pH 7.4. The sample is then centrifuged at 30,000×g and resuspended and rehomogenized. The sample is then centrifuged as described and the final tissue sample is frozen until use. The tissue is resuspended 1:20 (wt/vol) in 0.05M Tris HCl buffer containing 100 mM NaCl. […] The binding characteristics of examples of this patent are shown in Table 1 for Rat Striatal Homogenates.

[2] = target: T1, human dopamine D4 receptor subtype (Homo sapiens, UniProt P21917); assay: D4 receptor binding activity: displacement of [3H] YM-09151-2; conditions: 0.1 nM [3H] YM-09151-2; 60 minutes at 25° C.; clonal cell lines expressing human D4
T1 construct: expressed in transfected cells
T1 sequence (P21917 1-419): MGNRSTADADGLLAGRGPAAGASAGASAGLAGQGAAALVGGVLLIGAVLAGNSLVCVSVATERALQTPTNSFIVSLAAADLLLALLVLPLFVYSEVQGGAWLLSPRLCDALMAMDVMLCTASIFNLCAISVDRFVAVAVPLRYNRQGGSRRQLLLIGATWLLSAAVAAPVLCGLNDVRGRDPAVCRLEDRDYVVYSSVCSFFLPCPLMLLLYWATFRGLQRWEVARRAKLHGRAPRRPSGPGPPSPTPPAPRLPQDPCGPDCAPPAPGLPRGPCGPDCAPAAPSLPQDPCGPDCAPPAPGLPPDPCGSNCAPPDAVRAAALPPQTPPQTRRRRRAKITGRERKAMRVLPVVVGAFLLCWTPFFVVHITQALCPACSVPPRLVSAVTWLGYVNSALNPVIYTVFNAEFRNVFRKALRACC
Description: Assay for D4 Receptor Binding Activity
Clonal cell lines expressing the human dopamine D4 receptor subtype were harvested in PBS and the cells centrifuged and the pellets stored at -80° C. until used in the binding assay. The pellets were resuspended and the cells lysed at 4° C. in 50 mM Tris pH 7.4 buffer containing 120 mM NaCl, 2 mM EDTA and 5 mM mMgCl2. The homogenate is centrifuged at 48000×g for 10 minutes at 4° C. The resulting pellet is resuspended in fresh buffer and centrifuged again. After resuspension of the pellet in fresh buffer at 100 ul aliquot removed for the protein determination. The remaining homogenate is centrifuged as above, the supernatant removed and the pellet stored at 4° C. until needed at which time it is resuspended to a final concentration of 625 ug/ml (250 ug per sample) with 50 mM Tris buffer (pH 7.4) and 120 mM NaCl just prior to use. Incubations were carried out for 60 minutes at 25° C. in the presence of 0.1 nM [^3 H] YM-09151-2. The incubation was terminated by rapid filtration through Whatman GF/C filters and rinsed with 2×4 ml washes of chilled 50 mM Tris (pH 7.4) and 120 mM NaCl. Nonspecific binding was determined with 1 uM spiperone and radioactivity determined by counting in an LKB beta counter. Binding parameters were determined by non-linear least squares regression analysis, from which the inhibition constant Ki could be calculated for each test compound. The binding characteristics of some examples of this patent are shown in Table 2 for the dopamine D4 binding assay. […] YM-09151-2 from the human dopamine D4 receptor subtype of below […].

Structure (SMILES)	IC50 [1]	Ki [2]
Fc1ccc(N2CCN(Cc3cn(-c4ccccc4)cn3)CC2)cc1 [Compound 6, 1-Phenyl-4[(4-(4-fluorophenyl)-piperazin-1-yl)methyl]imidazole dihydrochloride]	194 nM	3 nM
c1ccc(CC2CCN(Cc3cn(-c4ccccc4)cn3)CC2)cc1 [Compound 1, 1-phenyl-4[(4-benzyl-piperidin-1-yl)-methyl]imidazole]	142 nM	3 nM
c1ccc(C2CCN(Cc3cn(-c4ccccc4)cn3)CC2)cc1 [Compound 2, 1-Phenyl-4[(4-phenyl-piperidin-1-yl)methyl]imidazole dihydrochloride]	3 nM	10 nM
c1ccc(N2CCN(Cc3cn(-c4ccccc4)cn3)CC2)cc1 [Compound 3, 1-Phenyl-4[(4-phenyl-piperazin-1-yl)methyl]imidazole dihydrochloride]	6 nM	2 nM
